# Measurements as given in patent publication US20240368668A1, “SUBSTRATES AND BIOMARKERS OF ADAMTS7” (The Broad Institute, Inc., priority 2021, published 2024).
# Square brackets hold non-standard residues; d marks the D form. Ends that are not written are not given here.
# Tested on: mouse ADAMTS7
# Experiment: TMT10 TAILS N-terminomics, SMC2 experiment (process replicates, trypsin/AspN digest)
# Format: cell-based
# Settings: SMC2_TAILS HC; log fold change of N-terminal peptide, Ad-mADAMTS7 WT over EQ
# Method in brief: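 Full-length mouse ADAMTS7 (WT or E373Q mutant, C-terminal 3xFLAG) or luciferase was transduced via adenovirus, 50 MOI, into HCA-SMC (SMC1, SMC2) or HUVEC. SMC1: pooled media, technical triplicates 400 ug; SMC2: process triplicates 300 ug; HUVEC: process triplicates 200 ug, bFGF2 10 ng/ml.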
row,Substance,logFC.mWT.over.mEQ
1,ZSCAN4_25 (FQQSQGPAVQR; listed as Homo sapiens),2.89
2,VIM_322 (QVQSLTCEV; listed as Homo sapiens),1.11
3,VIM_276 (YESVAAKNLQ; listed as Homo sapiens),0.83
4,VCAN_3367 (FKNSSSAK; listed as Homo sapiens),1.51

# Same assay, conditions: SMC2_TAILS HC; log fold change, mWT over mEQ
row,Substance,logFC.mWT.over.mEQ
1,FN1_99 (DKYTGNTYR; listed as Homo sapiens),1.43
2,FN1_1780 (LQGLRPGSEYTVSVVALH; listed as Homo sapiens),2.01
3,LOX_125 (FQAGYSTSR; listed as Homo sapiens),3.33
4,AMER2_654 (LAGTTIRATACH; listed as Homo sapiens),0.90
5,FSTL_1290 (LQKHQETA; listed as Homo sapiens),2.86
6,ACTN4_5 (HAANQSYQYGPSSAGNGAGGGGSMG; listed as Homo sapiens),2.64
7,FLNA_689 (VNKPAEFTV; listed as Homo sapiens),6.12
8,LASP1_182 (SYGGYKEPAAPVSIQR; listed as Homo sapiens),1.01
9,APLP2_452 (LVETHLAR; listed as Homo sapiens),2.59
10,FN1_1805 (LIGTQSTAIPAPT; listed as Homo sapiens),1.73
11,FBLN2_665 (FSQVASNTIPLPLPQPNTCK; listed as Homo sapiens),1.89
12,FN1_607 (SSSGPVEVFIT; listed as Homo sapiens),0.63
13,HEG1_224 (FQTKSGTAS; listed as Homo sapiens),3.25
14,ECM1_38 (FQEVGYAAPPSPPLSR; listed as Homo sapiens),1.57
15,EEF1G_23 (QYSGAQVR; listed as Homo sapiens),3.30
16,DBN1_434 (APVEPATA; listed as Homo sapiens),1.57
17,FLNC_2649 (FVGQKNSFTV; listed as Homo sapiens),3.97
18,ACTG1_105 (LTEAPLNPKANR; listed as Homo sapiens),2.11
19,CCL2_28 (INAPVTCCYNFTNR; listed as Homo sapiens),1.46
20,EMSY_943 (QTVVQVLAVK; listed as Homo sapiens),0.92
21,FN1_1693 (LQPTVEYVVSVYAQNPSG; listed as Homo sapiens),2.05

row,Substance,logFC.mWT.over.mEQ
1,CALU_176 (FTAFLHPEEY; listed as Homo sapiens),2.38
2,ECM1_44 (AAPPSPPLSR; listed as Homo sapiens),2.54
3,DIS3L_75 (FPELKGIIFMQTACQAVQHQR; listed as Homo sapiens),1.78
4,CEP192_728 (DKSTAGR; listed as Homo sapiens),2.95
5,CAP1_300 (FSAPKPQTSPSPKR; listed as Homo sapiens),2.81
6,EIF4B_426 (QTGTSTTSSR; listed as Homo sapiens),5.12
7,FN1_35 ([code q]MVQPQSPVAVSQSKPGCY; not fully specified (residue 2); listed as Homo sapiens),2.08
8,APOA1_86 (EQLGPVTQEFW; listed as Homo sapiens),1.88
9,LOX_60 (LGSQYQPQR; listed as Homo sapiens),1.59
10,FOXG1_235 (LNKCFVKVPRHY; listed as Homo sapiens),3.34
11,ADAM10_86 (FKVETSNKVL; listed as Homo sapiens),2.74
12,LOXL1_157 (SVSASAFASTYR; listed as Homo sapiens),2.90
13,KCND1_436 (RLAKSGTTNAFLQYKQNGGLE; listed as Homo sapiens),1.74
14,KRT28_2 (SLQFSNGSR; listed as Homo sapiens),2.22
15,BMPER_43 (LTGSVAKCENEG; listed as Homo sapiens),2.43
16,ADNP2_375 (SQPVGPVNK; listed as Homo sapiens),0.75
17,ECM1_108 (QEAVPLQK; listed as Homo sapiens),3.34
18,CTSB_109 (WAFGAVEAIS; listed as Homo sapiens),1.73
19,ADAM9_74 (GKEHIIHLER; listed as Homo sapiens),4.31
20,HEG1_51 (GLELQLER; listed as Homo sapiens),0.65
21,FN1_2113 (FVTHPGY; listed as Homo sapiens),1.57

# Same assay, conditions: TAILS HC Overlap; SMC2; log fold change mouse ADAMTS7 WT over catalytically inactive EQ
row,Substance,SMC2 logFC.mWT.over.mEQ
1,FSTL1_290 (LQKHQETA; listed as Homo sapiens),2.86

# Same assay, conditions: log fold change, ADAMTS7 WT over EQ
row,Substance,logFC.mWT.over.mEQ
1,STC2_244 (HHLPEPSSR; listed as Homo sapiens),1.35
2,TGFBI_50 (AVQKVIGTNR; listed as Homo sapiens),0.64
3,TGFBI_497 (VLTPPMGTVMDVLKGDNR; not fully specified (residue 6); listed as Homo sapiens),0.61
4,TGFBI_524 (SAGLTETLNR; listed as Homo sapiens),0.66
5,TMEM132A_52 (LLDAPEHFR; listed as Homo sapiens),2.95
6,VASP_229 (AIAGAKLR; listed as Homo sapiens),4.56
7,SPOCK1_126 (HWVGPSNLVK; listed as Homo sapiens),0.93
8,THBS1_972 (QNDPNWVVR; listed as Homo sapiens),3.59
9,STC2_239 (HGEAGHHLPEPSSR; listed as Homo sapiens),1.70
10,SRGN_50 (LEEKGPMFELLPGESNKIPR; listed as Homo sapiens),3.28
11,TGFBI_208 (GIVTVNCAR; listed as Homo sapiens),0.59
12,SDC4_106 (LEENEVIPKR; listed as Homo sapiens),1.67
13,TGFBI_24 (GPAKSPYQLVLQHSR; listed as Homo sapiens),0.71
14,TG_1017 (GASALLR; listed as Homo sapiens),3.05
15,SRGN_62 (GESNKIPR; listed as Homo sapiens),3.26
16,QSOX1_558 (VAAAPELAMGALELESR; listed as Homo sapiens),1.13
17,TLN1_1501 (HTSALCNSCR; listed as Homo sapiens),1.48
18,TGFBI_534 (EGVYTVFAPTNEAFR; listed as Homo sapiens),0.82
19,SRGN_60 (LPGESNKIPR; listed as Homo sapiens),3.25
20,TGFBI_276 (TLLAPT[code n]EAFEKIPSETLNR; not fully specified; listed as Homo sapiens),0.66
21,TGFBI_43 ([code q]HGPNVCAVQKVIGTNR; not fully specified; listed as Homo sapiens),0.75
22,STC1_37 (QNSAEVVR; listed as Homo sapiens),4.78
23,SMOC1_35 (LISDRDPQCNLHCSR; listed as Homo sapiens),1.62
24,SRGN_51 (EEKGPMFELLPGESNKIPR; listed as Homo sapiens),1.79
25,VIM_433 (LVDTHSKR; listed as Homo sapiens),2.79
26,VASN_138 (HIQPGAFDTLDR; listed as Homo sapiens),1.45
27,SERPINH1_27 (AAAPGTAEKLSPKAATLAER; listed as Homo sapiens),3.30
